Experimental data published in patent publication US20250215029A1 (Recludix Pharma, Inc., priority 2022, published 2025).

What was measured:
pY705-STAT3 in PBMC = target: T1, pY705-STAT3 in PBMC (Homo sapiens, UniProt P40763); assay: MSD-pSTAT-PBMC Assay (pSTAT3, IL-6 stimulated); format: cell-based; settings: PBMC, compound 3 hrs, then 10 ng/mL IL-6 for 10 min; Table 115; read-out: STAT3
T1 construct: Cryopreserved Peripheral Blood Mononuclear Cells (PBMC) are from AllCells; host or cells: cryopreserved PBMC
Outline: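 Cells are preincubated with compound for 3 hrs, then stimulated for 10 min, IL-4 at 1 ng/mL driving STAT6 phosphorylation and IL-6 at 10 ng/mL driving STAT3. Phospho-STAT in lysates is quantified by MSD immunoassay, and IC50 is fitted after subtracting unstimulated wells.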

pY641-STAT6 in PBMC = target: T2, pY641-STAT6 in PBMC (Homo sapiens, UniProt P42226); assay: MSD-pSTAT-PBMC Assay (pSTAT6, IL-4 stimulated); format: cell-based; settings: STAT6, PBMC, compound 3 hrs, then 1 ng/mL IL-4 for 10 min; Table 115
T2 construct: Cryopreserved Peripheral Blood Mononuclear Cells (PBMC) are from AllCells; host or cells: cryopreserved PBMC
T2 sequence (P42226 1-847): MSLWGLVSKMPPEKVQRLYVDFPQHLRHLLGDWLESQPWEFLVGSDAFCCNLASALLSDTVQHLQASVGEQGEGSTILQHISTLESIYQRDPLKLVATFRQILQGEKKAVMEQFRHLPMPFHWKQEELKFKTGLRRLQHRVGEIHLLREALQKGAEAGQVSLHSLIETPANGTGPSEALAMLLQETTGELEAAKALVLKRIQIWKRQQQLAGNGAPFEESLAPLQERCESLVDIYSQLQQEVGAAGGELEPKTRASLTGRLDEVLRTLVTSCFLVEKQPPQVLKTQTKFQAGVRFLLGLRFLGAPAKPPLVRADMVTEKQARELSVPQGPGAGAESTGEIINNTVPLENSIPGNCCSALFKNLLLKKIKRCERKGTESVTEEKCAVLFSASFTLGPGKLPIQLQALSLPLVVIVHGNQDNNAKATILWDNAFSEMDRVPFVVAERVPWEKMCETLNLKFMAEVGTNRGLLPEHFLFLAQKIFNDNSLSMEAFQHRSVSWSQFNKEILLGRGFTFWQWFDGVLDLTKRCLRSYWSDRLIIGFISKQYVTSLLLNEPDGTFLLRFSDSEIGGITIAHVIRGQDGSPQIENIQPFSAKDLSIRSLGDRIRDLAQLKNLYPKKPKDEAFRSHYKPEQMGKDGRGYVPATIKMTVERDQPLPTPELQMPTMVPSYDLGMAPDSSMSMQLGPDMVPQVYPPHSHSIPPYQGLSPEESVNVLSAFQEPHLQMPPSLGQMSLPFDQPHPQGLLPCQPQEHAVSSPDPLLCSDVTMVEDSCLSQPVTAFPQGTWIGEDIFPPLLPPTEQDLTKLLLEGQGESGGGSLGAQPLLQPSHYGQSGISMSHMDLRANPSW
Outline: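 Inhibition of cytokine-induced STAT phosphorylation was measured in recovered human PBMC after 3 hrs compound exposure and a 10 min IL-4 (1 ng/mL) or IL-6 (10 ng/mL) challenge. MSD detection of pY641-STAT6 or pY705-STAT3 yielded IC50 values.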

T1 sequence (P40763 whole entry): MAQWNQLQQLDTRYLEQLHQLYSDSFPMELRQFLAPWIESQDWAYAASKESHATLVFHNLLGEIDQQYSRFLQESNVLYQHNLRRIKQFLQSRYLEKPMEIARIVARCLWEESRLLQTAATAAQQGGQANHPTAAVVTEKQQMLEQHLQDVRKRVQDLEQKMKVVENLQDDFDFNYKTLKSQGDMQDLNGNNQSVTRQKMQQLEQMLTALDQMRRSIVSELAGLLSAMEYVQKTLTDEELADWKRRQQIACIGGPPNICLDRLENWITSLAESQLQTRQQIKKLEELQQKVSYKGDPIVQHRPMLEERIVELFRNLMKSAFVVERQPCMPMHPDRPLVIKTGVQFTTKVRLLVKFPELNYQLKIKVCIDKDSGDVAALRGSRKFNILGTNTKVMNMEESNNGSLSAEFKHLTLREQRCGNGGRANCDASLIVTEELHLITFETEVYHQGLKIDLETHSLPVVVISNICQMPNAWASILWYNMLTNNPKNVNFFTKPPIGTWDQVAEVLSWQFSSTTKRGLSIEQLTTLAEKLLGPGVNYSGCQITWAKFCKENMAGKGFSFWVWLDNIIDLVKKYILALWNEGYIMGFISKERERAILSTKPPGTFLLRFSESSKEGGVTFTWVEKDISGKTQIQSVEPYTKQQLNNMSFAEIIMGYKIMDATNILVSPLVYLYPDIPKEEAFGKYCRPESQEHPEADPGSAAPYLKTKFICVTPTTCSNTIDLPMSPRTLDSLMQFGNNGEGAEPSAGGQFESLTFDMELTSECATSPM

Compound	IC50 (pY705-STAT3 in PBMC)	IC50 (pY641-STAT6 in PBMC)
CCCOC(=O)[C@H](C)NP(=O)(Oc1ccccc1)C(F)c1ccc2sc(C(=O)N[C@H]3CCC[C@H]4CC[C@@H](C(=O)N5CC(c6cnccc6OC)C5)N4C3=O)cc2c1 (stereo partly drawn) [Compound 262, propyl ((fluoro(2-(((3S,6S,9aS)-3-(3-(4-methoxypyridin-3-yl)azetidine-1-carbonyl)-5-oxooctahydro-1H-pyrrolo[1,2-a]azepin-6-yl)carbamoyl)benzo [b]thiophen-5-yl)methyl)(phenoxy)phosphoryl)-L-alaninate]	< 100 nM	> 3000 nM
CCCOC(=O)[C@H](C)NP(=O)(Oc1ccccc1)C(F)c1ccc2sc(C(=O)N[C@H]3C[C@H](C)C[C@H]4CC[C@@H](C(=O)N5CC(c6cnccc6F)C5)N4C3=O)cc2c1 (stereo partly drawn) [Compound 263, propyl ((fluoro(2-(((3S,6S,8S,9aR)-3-(3-(4-fluoropyridin-3-yl)azetidine-1-carbonyl)-8-methyl-5-oxooctahydro-1H-pyrrolo[1,2-a]azepin-6-yl)carbamoyl)benzo [b]thiophen-5-yl)methyl)(phenoxy)phosphoryl)-L-alaninate]	< 100 nM	> 3000 nM
CCCOC(=O)[C@H](C)NP(=O)(Cc1ccc2sc(C(=O)N[C@H]3CCCC[C@H]4CC[C@@H](C(=O)NCc5cnc6[nH]cnc6c5)N4C3=O)cc2c1)Oc1ccccc1 (stereo partly drawn) [Compound 280, propyl (((2-(((3S,6S,10aS)-3-(((3H-imidazo[4,5-b]pyridin-6-yl)methyl)carbamoyl)-5-oxodecahydropyrrolo [1,2-a]azocin-6-yl)carbamoyl)benzo [b]thiophen-5-yl)methyl)(phenoxy)phosphoryl)-L-alaninate]	< 100 nM	> 3000 nM
CCCOC(=O)[C@H](C)NP(=O)(Cc1ccc2sc(C(=O)N[C@H]3C[C@@H](C)C[C@H]4CC[C@@H](C(=O)N5CC(c6cnccc6C)C5)N4C3=O)cc2c1)Oc1ccccc1 (stereo partly drawn) [Compound 284, propyl (((2-(((3S,6S,8R,9aR)-8-methyl-3-(3-(4-methylpyridin-3-yl)azetidine-1-carbonyl)-5-oxooctahydro-1H-pyrrolo[1,2-a]azepin-6-yl)carbamoyl)benzo [b]thiophen-5-yl)methyl)(phenoxy)phosphoryl)-L-alaninate]	< 100 nM	> 3000 nM
CCCOC(=O)[C@H](C)NP(=O)(Oc1ccccc1)C(F)c1ccc2sc(C(=O)N[C@H]3C[C@@H](C)C[C@H]4CC[C@@H](C(=O)N5CC(c6cnccc6F)C5)N4C3=O)cc2c1 (stereo partly drawn) [Compound 292, propyl ((fluoro(2-(((3S,6S,8R,9aR)-3-(3-(4-fluoropyridin-3-yl)azetidine-1-carbonyl)-8-methyl-5-oxooctahydro-1H-pyrrolo[1,2-a]azepin-6-yl)carbamoyl)benzo [b]thiophen-5-yl)methyl)(phenoxy)phosphoryl)-L-alaninate]	< 100 nM	> 3000 nM
CCCOC(=O)[C@H](C)NP(=O)(Cc1ccc2sc(C(=O)N[C@H]3CC4(CC[C@H]5CC[C@@H](C(=O)N6CC(c7cccnc7)C6)N5C3=O)CC4)cc2c1)Oc1ccccc1 (stereo partly drawn) [Compound 302, propyl (((2-(((3′S,6′S,10a′S)-5′-oxo-3′-(3-(pyridin-3-yl)azetidine-1-carbonyl)octahydro-5′H-spiro[cyclopropane-1,8′-pyrrolo[1,2-a]azocin]-6′-yl)carbamoyl)benzo [b]thiophen-5-yl)methyl)(phenoxy)phosphoryl)-L-alaninate]	< 100 nM	1000 to 3000 nM
CCCOC(=O)[C@H](C)NP(=O)(Cc1ccc2sc(C(=O)N[C@H]3CCC[C@H]4CC[C@@H](C(=O)N5CC(c6cnccc6F)C5)N4C3=O)cc2c1)Oc1ccccc1 (stereo partly drawn) [Compound 304, propyl (((2-(((3S,6S,9aS)-3-(3-(4-fluoropyridin-3-yl)azetidine-1-carbonyl)-5-oxooctahydro-1H-pyrrolo[1,2-a]azepin-6-yl)carbamoyl)benzo [b]thiophen-5-yl)methyl)(phenoxy)phosphoryl)-L-alaninate]	< 100 nM	> 3000 nM
